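Where inhibition never reached the appropriate level, the endpoint shown equals the highest concentration tested. Otherwise, values were interpolated linearly from a five-concentration, 48-hour dose response in 96-well plates. GI50: concentration for 50% inhibition of growth. TGI is the concentration that stops growth completely.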 Where only a bound is given, the exact number is not on record here.

The values that follow come from PubChem BioAssay (NCI).

Some test systems named below: UO-31 renal; A549 NSCLC; SN12C renal; K-562 leukemia; MOLT-4 leukemia; SK-MEL-28 melanoma; SR leukemia; DU-145 prostate; T-47D breast; SK-OV-3 ovarian.
Common to all, as to assay: DTP human tumour cell line panel, 48 h

For orientation: GI50 means the concentration that inhibits growth by half. A word on the TGI: it is the concentration giving total growth inhibition. High values mean lower sensitivity of the cells, low ones greater sensitivity of the cells. Consider `CN(C)c1cc2c(cc1Sc1nc3c(N)nccc3n1CCNCC(C)(C)C)OCO2`, for which the GI50 in the assay on UO-31 renal is 0.64 µM; in the assay on A549 NSCLC, 0.438 µM; with SN12C renal it was 0.507 µM; with K-562 leukemia, 0.319 µM; with MOLT-4 leukemia it was 0.287 µM; with SK-MEL-28 melanoma it was 0.621 µM. In addition, the concentration for 50% growth inhibition (GI50) with SR leukemia is 0.25 µM; in the assay with DU-145 prostate, 0.732 µM; in the assay on T-47D breast, 0.533 µM; with SK-OV-3 ovarian it was 0.394 µM. The TGI in the assay on UO-31 renal was 19 µM; with A549 NSCLC, 18.7 µM; in the assay on SN12C renal, 25 µM; with K-562 leukemia it was 11 µM; with MOLT-4 leukemia, 3.54 µM; with SK-MEL-28 melanoma it was 15.6 µM. The TGI with SR leukemia was 12.2 µM; in the assay on DU-145 prostate, 18.5 µM; in the assay with T-47D breast, 31.1 µM; with SK-OV-3 ovarian, 15.2 µM.

`COc1cc2c3c(n(CCCN=[N+]=[N-])c(=O)c2cc1OC)-c1ccc(N)cc1C3=O`: the GI50 with UO-31 renal was 0.146 µM; with A549 NSCLC it was 0.374 µM; in the assay with SN12C renal, 0.282 µM; in the assay with K-562 leukemia it was 0.177 µM; in the assay with MOLT-4 leukemia, 0.0731 µM; in the assay on SK-MEL-28 melanoma, 0.613 µM. Also, the concentration for 50% growth inhibition (GI50) was 0.0276 µM with SR leukemia, 0.117 µM in the assay with DU-145 prostate, 0.0988 µM in the assay on T-47D breast and 0.277 µM in the assay with SK-OV-3 ovarian. The TGI with UO-31 renal was 0.803 µM; in the assay on A549 NSCLC it was 2.34 µM; in the assay with SN12C renal it was greater than 27.1 µM; in the assay with MOLT-4 leukemia, 1.46 µM; in the assay on SK-MEL-28 melanoma it was 2.78 µM; in the assay on SR leukemia it was 0.498 µM. The TGI amounted to 1.42 µM in the assay with DU-145 prostate, 0.76 µM with T-47D breast and 0.716 µM in the assay on SK-OV-3 ovarian.

Consider `C[C@H]1O[C@@H](O[C@H]2[C@@H](O)C[C@H](O[C@H]3[C@@H](O)C[C@H](O[C@H]4CC[C@]5(C)C6C[C@@H](O)[C@]7(C)[C@@H](C8=CC(=O)OC8)CC[C@]7(O)C6CC[C@@H]5C4)O[C@@H]3C)O[C@@H]2C)C[C@H](O)[C@@H]1O` (some centres undefined), for which the 50% growth inhibitory concentration (GI50) is 0.0836 µM with UO-31 renal; 0.0163 µM with A549 NSCLC; 0.0266 µM in the assay with SN12C renal; 0.117 µM with K-562 leukemia; 0.0176 µM in the assay on MOLT-4 leukemia; 0.104 µM in the assay with SK-MEL-28 melanoma. For the same compound, the GI50 in the assay with SR leukemia is 0.0552 µM; with DU-145 prostate, 0.0329 µM; in the assay with T-47D breast it was 0.0833 µM; in the assay with SK-OV-3 ovarian it was 0.0821 µM. In addition, the TGI with UO-31 renal came to 0.166 µM; in the assay on A549 NSCLC it was 0.0581 µM; in the assay on SN12C renal, 0.457 µM; in the assay on K-562 leukemia, 0.413 µM; in the assay on MOLT-4 leukemia, 0.147 µM; in the assay on SK-MEL-28 melanoma it was 0.222 µM. Moreover, the TGI in the assay with SR leukemia turned out to be 0.307 µM; with DU-145 prostate, 0.0968 µM; with T-47D breast it was 0.252 µM; with SK-OV-3 ovarian, 0.164 µM.

For `O=C1C(=O)c2ccccc2C=C1[N+](=O)[O-]`, the TGI in the assay on UO-31 renal was greater than 100 µM; in the assay on A549 NSCLC it was greater than 100 µM; with SN12C renal, greater than 100 µM; in the assay on K-562 leukemia it was greater than 100 µM; in the assay with MOLT-4 leukemia it was 65.4 µM; in the assay on SK-MEL-28 melanoma it was greater than 100 µM. In addition, the concentration for total growth inhibition (TGI) in the assay with SR leukemia, in the assay on DU-145 prostate, in the assay on T-47D breast and in the assay on SK-OV-3 ovarian was greater than 100 µM each time.

Regarding `NC(=O)c1cccc(N)c1`, the GI50 in the assay with UO-31 renal, in the assay with A549 NSCLC, with SN12C renal, in the assay on K-562 leukemia, with MOLT-4 leukemia and in the assay on SK-MEL-28 melanoma was greater than 100 µM in each case. Further, the GI50 in the assay on SR leukemia, with DU-145 prostate, with T-47D breast and with SK-OV-3 ovarian was greater than 100 µM throughout. Besides, the TGI in the assay on UO-31 renal, in the assay on A549 NSCLC, with SN12C renal, with K-562 leukemia, in the assay on MOLT-4 leukemia and with SK-MEL-28 melanoma was greater than 100 µM in each case. In addition, the TGI with SR leukemia, in the assay on DU-145 prostate, in the assay on T-47D breast and in the assay with SK-OV-3 ovarian was greater than 100 µM in each case.

For `CN(C)c1cc2c(Nc3ccc4nc(Cc5ccccc5)[nH]c4c3)ncnc2cn1`, the GI50 is 12.2 µM with UO-31 renal; 11.8 µM in the assay with A549 NSCLC; greater than 16.1 µM in the assay on SN12C renal; greater than 19.8 µM in the assay with K-562 leukemia; greater than 25 µM in the assay on MOLT-4 leukemia; greater than 12.4 µM in the assay with SK-MEL-28 melanoma. Also, the GI50 in the assay with SR leukemia was 8.79 µM; in the assay with DU-145 prostate it was 12.1 µM; in the assay on T-47D breast, greater than 16.4 µM; in the assay with SK-OV-3 ovarian it was 1.85 µM. In addition, the TGI is greater than 25 µM in the assay with UO-31 renal; greater than 25 µM in the assay on A549 NSCLC; greater than 25 µM in the assay on SN12C renal; greater than 25 µM with K-562 leukemia; greater than 25 µM in the assay with MOLT-4 leukemia; greater than 20 µM in the assay with SK-MEL-28 melanoma. Also, the TGI with SR leukemia, in the assay with DU-145 prostate, in the assay with T-47D breast and with SK-OV-3 ovarian was greater than 25 µM throughout.

For the compound `N#CC(NC12CC3CC(CC(C3)C1)C2)c1ccccc1` (centres undefined), the TGI with UO-31 renal, with A549 NSCLC, in the assay with SN12C renal, in the assay on K-562 leukemia, with MOLT-4 leukemia and in the assay with SK-MEL-28 melanoma was greater than 100 µM throughout. Besides, the TGI in the assay on SR leukemia, with DU-145 prostate, in the assay with T-47D breast and in the assay with SK-OV-3 ovarian was greater than 100 µM each time.

Turning to `C[CH2][Sn]1([CH2]C)[O]C2C(O)OC(CO)C(O)C2[O]1` (centres undefined), the GI50 with UO-31 renal was 68.7 µM; in the assay with A549 NSCLC, greater than 100 µM; in the assay on SN12C renal, 4.55 µM; in the assay on K-562 leukemia, 16.7 µM; with MOLT-4 leukemia, 12.8 µM; in the assay on SK-MEL-28 melanoma, 23.3 µM. Moreover, the GI50 is 13.3 µM in the assay on SR leukemia, 86.8 µM in the assay on DU-145 prostate, 14.6 µM in the assay on T-47D breast and greater than 100 µM in the assay on SK-OV-3 ovarian. In addition, the TGI in the assay on UO-31 renal was greater than 100 µM; in the assay on A549 NSCLC it was greater than 100 µM; in the assay on SN12C renal, 26.5 µM; in the assay with K-562 leukemia, 41.4 µM; in the assay with MOLT-4 leukemia, 40.5 µM; in the assay with SK-MEL-28 melanoma it was 80.4 µM. The TGI is 39.6 µM with SR leukemia, greater than 100 µM with DU-145 prostate, 32.3 µM in the assay with T-47D breast and greater than 100 µM in the assay with SK-OV-3 ovarian.

In the case of `O=[N+]([O-])c1ccccc1S(=O)(=O)c1ccccc1[N+](=O)[O-]`, the TGI with UO-31 renal is greater than 100 µM; in the assay with A549 NSCLC, greater than 56.2 µM; with SN12C renal, greater than 100 µM; in the assay on K-562 leukemia, greater than 100 µM; in the assay with MOLT-4 leukemia, greater than 100 µM; in the assay with SK-MEL-28 melanoma it was greater than 100 µM. Moreover, the TGI in the assay with SR leukemia, in the assay with DU-145 prostate, in the assay on T-47D breast and with SK-OV-3 ovarian was greater than 100 µM each time.
